Assay results as given in ChEMBL document CHEMBL1132159, “[3H]Azidodantrolene: synthesis and use in identification of a putative skeletal muscle dantrolene binding site in sarcoplasmic reticulum” (J Med Chem, 1999).

Experiments:
[1] = The compound was tested for binding affinity in the absence of beta, gamma- methyleneadenosine 5'-triphosphate(AMP-PCP) in porcine sarcoplasmic reticulum
[2] = The compound was tested for binding affinity against porcine sarcoplasmic reticulum(SR) membrane
[3] = The compound was tested for binding affinity in a buffer containing 500 uM-3 mM beta,gamma-methyleneadenosine 5'-triphosphate(AMP-PCP) in porcine sarcoplasmic reticulum
[4] = Binding affinity against porcine sarcoplasmic reticulum
[5] = The compound was tested for binding affinity against porcine sarcoplasmic reticulum(SR) membrane in the absence or presence of azumolene
[6] = The compound was tested for binding affinity against porcine sarcoplasmic reticulum(SR) membrane in the absence or presence of dantrolene from porcine sarcoplasmic reticulum
[7] = The compound was tested for binding affinity against porcine sarcoplasmic reticulum(SR) membrane in the absence or presence of atropine
[8] = The compound was tested for binding affinity against porcine sarcoplasmic reticulum

[3H]/C(=N\N1CC(=O)[N-]C1=O)c1ccc(-c2ccc([N+](=O)[O-])cc2)o1.[Na+]
Kd [1]: 275 nM
Ki [2]: 1500 nM
Kd [3]: 210 nM

O=C1CN(/N=C/c2ccc(-c3ccc([N+](=O)[O-])cc3)o2)C(=O)N1 [DANTROLENE SODIUM]
Kd [4]: 300 nM

[3H]/C(=N\N1CC(=O)[N-]C1=O)c1ccc(-c2ccc(N=[N+]=[N-])cc2)o1.[Na+] [[3H]-AZIDODANTROLINE]
Ki [5]: 100 µM
Ki [6]: 20 µM
Ki [7]: 100 µM
Ki [8]: 175 nM
